In PubChem BioAssay (NCI):
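Step 1: Grow cells in 96-well plates. Step 2: Expose to compound for 48 hours at 5 concentrations. Step 3: Interpolate endpoints linearly; if unreached, use highest concentration. Definition used: TGI = concentration required for complete inhibition of growth.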

System: SK-MEL-2 melanoma
Assay: NCI anticancer screen, dose series, 48 h

| SMILES | TGI [µM] |
| --- | --- |
| CCCN=Cc1c(O)c(O)c(C(C)C)c2cc(C)c(-c3c(C)cc4c(C(C)C)c(O)c(O)c(C=NCCC)c4c3O)c(O)c12 | 7.44 |

System: SK-MEL-28 melanoma
Assay: NCI anticancer screen, dose series, 48 h

| SMILES | TGI [µM] |
| --- | --- |
| COC1=C(OC)C(O)(c2ccccc2)C1=O (configuration not stated) | > 100 |
| O=C(c1nc2ccc(Cl)cc2[nH]c1=O)C(O)c1ccccc1 (configuration not stated) | > 100 |
| c1ccc(C2(c3ccccc3)SSC3(S2)C2CC4CC(C2)CC3C4)cc1 (configuration not stated) | > 100 |
| N#Cc1ccccc1NC(=O)/C(=N\Nc1ccc([N+](=O)[O-])cc1)C1C(=O)NC(=O)NC1=O | > 100 |
| CCCN=Cc1c(O)c(O)c(C(C)C)c2cc(C)c(-c3c(C)cc4c(C(C)C)c(O)c(O)c(C=NCCC)c4c3O)c(O)c12 | > 78.3 |

System: SK-MEL-5 melanoma
Assay: NCI anticancer screen, dose series, 48 h

| SMILES | TGI [µM] |
| --- | --- |
| O=C(c1nc2ccc(Cl)cc2[nH]c1=O)C(O)c1ccccc1 (configuration not stated) | > 100 |
| c1ccc(C2(c3ccccc3)SSC3(S2)C2CC4CC(C2)CC3C4)cc1 (configuration not stated) | > 100 |
| N#Cc1ccccc1NC(=O)/C(=N\Nc1ccc([N+](=O)[O-])cc1)C1C(=O)NC(=O)NC1=O | > 100 |
| CCCN=Cc1c(O)c(O)c(C(C)C)c2cc(C)c(-c3c(C)cc4c(C(C)C)c(O)c(O)c(C=NCCC)c4c3O)c(O)c12 | 49.1 |

System: SK-OV-3 ovarian
Assay: NCI anticancer screen, dose series, 48 h

| SMILES | TGI [µM] |
| --- | --- |
| COC1=C(OC)C(O)(c2ccccc2)C1=O (configuration not stated) | > 100 |
| O=C(c1nc2ccc(Cl)cc2[nH]c1=O)C(O)c1ccccc1 (configuration not stated) | > 100 |
| c1ccc(C2(c3ccccc3)SSC3(S2)C2CC4CC(C2)CC3C4)cc1 (configuration not stated) | > 100 |
| N#Cc1ccccc1NC(=O)/C(=N\Nc1ccc([N+](=O)[O-])cc1)C1C(=O)NC(=O)NC1=O | > 100 |
| CCCN=Cc1c(O)c(O)c(C(C)C)c2cc(C)c(-c3c(C)cc4c(C(C)C)c(O)c(O)c(C=NCCC)c4c3O)c(O)c12 | > 30.8 |

System: SN12C renal
Assay: NCI anticancer screen, dose series, 48 h

| SMILES | TGI [µM] |
| --- | --- |
| O=C(c1nc2ccc(Cl)cc2[nH]c1=O)C(O)c1ccccc1 (configuration not stated) | > 100 |
| c1ccc(C2(c3ccccc3)SSC3(S2)C2CC4CC(C2)CC3C4)cc1 (configuration not stated) | > 100 |
| CCCN=Cc1c(O)c(O)c(C(C)C)c2cc(C)c(-c3c(C)cc4c(C(C)C)c(O)c(O)c(C=NCCC)c4c3O)c(O)c12 | 93.6 |

System: SNB-19 CNS
Assay: NCI anticancer screen, dose series, 48 h

| SMILES | TGI [µM] |
| --- | --- |
| COC1=C(OC)C(O)(c2ccccc2)C1=O (configuration not stated) | > 100 |
| O=C(c1nc2ccc(Cl)cc2[nH]c1=O)C(O)c1ccccc1 (configuration not stated) | > 100 |
| c1ccc(C2(c3ccccc3)SSC3(S2)C2CC4CC(C2)CC3C4)cc1 (configuration not stated) | > 100 |
| N#Cc1ccccc1NC(=O)/C(=N\Nc1ccc([N+](=O)[O-])cc1)C1C(=O)NC(=O)NC1=O | > 100 |
| CCCN=Cc1c(O)c(O)c(C(C)C)c2cc(C)c(-c3c(C)cc4c(C(C)C)c(O)c(O)c(C=NCCC)c4c3O)c(O)c12 | > 100 |

System: SNB-75 CNS
Assay: NCI anticancer screen, dose series, 48 h

| SMILES | TGI [µM] |
| --- | --- |
| c1ccc(C2(c3ccccc3)SSC3(S2)C2CC4CC(C2)CC3C4)cc1 (configuration not stated) | > 100 |
| N#Cc1ccccc1NC(=O)/C(=N\Nc1ccc([N+](=O)[O-])cc1)C1C(=O)NC(=O)NC1=O | > 100 |
| CCCN=Cc1c(O)c(O)c(C(C)C)c2cc(C)c(-c3c(C)cc4c(C(C)C)c(O)c(O)c(C=NCCC)c4c3O)c(O)c12 | > 100 |

System: SNB-78 CNS
Assay: NCI anticancer screen, dose series, 48 h

| SMILES | TGI [µM] |
| --- | --- |
| COC1=C(OC)C(O)(c2ccccc2)C1=O (configuration not stated) | > 100 |
| O=C(c1nc2ccc(Cl)cc2[nH]c1=O)C(O)c1ccccc1 (configuration not stated) | > 100 |
| c1ccc(C2(c3ccccc3)SSC3(S2)C2CC4CC(C2)CC3C4)cc1 (configuration not stated) | > 100 |
| N#Cc1ccccc1NC(=O)/C(=N\Nc1ccc([N+](=O)[O-])cc1)C1C(=O)NC(=O)NC1=O | > 100 |
| CCCN=Cc1c(O)c(O)c(C(C)C)c2cc(C)c(-c3c(C)cc4c(C(C)C)c(O)c(O)c(C=NCCC)c4c3O)c(O)c12 | 13.4 |

System: SR leukemia
Assay: NCI anticancer screen, dose series, 48 h

| SMILES | TGI [µM] |
| --- | --- |
| COC1=C(OC)C(O)(c2ccccc2)C1=O (configuration not stated) | > 100 |
| O=C(c1nc2ccc(Cl)cc2[nH]c1=O)C(O)c1ccccc1 (configuration not stated) | > 100 |
| c1ccc(C2(c3ccccc3)SSC3(S2)C2CC4CC(C2)CC3C4)cc1 (configuration not stated) | > 100 |
| CCCN=Cc1c(O)c(O)c(C(C)C)c2cc(C)c(-c3c(C)cc4c(C(C)C)c(O)c(O)c(C=NCCC)c4c3O)c(O)c12 | > 100 |

System: SW-620 colon
Assay: NCI anticancer screen, dose series, 48 h

| SMILES | TGI [µM] |
| --- | --- |
| O=C(c1nc2ccc(Cl)cc2[nH]c1=O)C(O)c1ccccc1 (configuration not stated) | > 100 |
| c1ccc(C2(c3ccccc3)SSC3(S2)C2CC4CC(C2)CC3C4)cc1 (configuration not stated) | > 100 |
| N#Cc1ccccc1NC(=O)/C(=N\Nc1ccc([N+](=O)[O-])cc1)C1C(=O)NC(=O)NC1=O | > 100 |
| CCCN=Cc1c(O)c(O)c(C(C)C)c2cc(C)c(-c3c(C)cc4c(C(C)C)c(O)c(O)c(C=NCCC)c4c3O)c(O)c12 | > 100 |

System: T-47D breast
Assay: NCI anticancer screen, dose series, 48 h

| SMILES | TGI [µM] |
| --- | --- |
| CCCN=Cc1c(O)c(O)c(C(C)C)c2cc(C)c(-c3c(C)cc4c(C(C)C)c(O)c(O)c(C=NCCC)c4c3O)c(O)c12 | > 100 |

System: TK-10 renal
Assay: NCI anticancer screen, dose series, 48 h

| SMILES | TGI [µM] |
| --- | --- |
| COC1=C(OC)C(O)(c2ccccc2)C1=O (configuration not stated) | 85.7 |
| O=C(c1nc2ccc(Cl)cc2[nH]c1=O)C(O)c1ccccc1 (configuration not stated) | > 100 |
| c1ccc(C2(c3ccccc3)SSC3(S2)C2CC4CC(C2)CC3C4)cc1 (configuration not stated) | > 100 |
| N#Cc1ccccc1NC(=O)/C(=N\Nc1ccc([N+](=O)[O-])cc1)C1C(=O)NC(=O)NC1=O | > 100 |
| CCCN=Cc1c(O)c(O)c(C(C)C)c2cc(C)c(-c3c(C)cc4c(C(C)C)c(O)c(O)c(C=NCCC)c4c3O)c(O)c12 | > 100 |

System: U251 CNS
Assay: NCI anticancer screen, dose series, 48 h

| SMILES | TGI [µM] |
| --- | --- |
| COC1=C(OC)C(O)(c2ccccc2)C1=O (configuration not stated) | > 100 |
| c1ccc(C2(c3ccccc3)SSC3(S2)C2CC4CC(C2)CC3C4)cc1 (configuration not stated) | > 100 |
| N#Cc1ccccc1NC(=O)/C(=N\Nc1ccc([N+](=O)[O-])cc1)C1C(=O)NC(=O)NC1=O | > 100 |
| CCCN=Cc1c(O)c(O)c(C(C)C)c2cc(C)c(-c3c(C)cc4c(C(C)C)c(O)c(O)c(C=NCCC)c4c3O)c(O)c12 | 44.8 |

System: UACC-257 melanoma
Assay: NCI anticancer screen, dose series, 48 h

| SMILES | TGI [µM] |
| --- | --- |
| COC1=C(OC)C(O)(c2ccccc2)C1=O (configuration not stated) | > 100 |
| O=C(c1nc2ccc(Cl)cc2[nH]c1=O)C(O)c1ccccc1 (configuration not stated) | > 100 |
| c1ccc(C2(c3ccccc3)SSC3(S2)C2CC4CC(C2)CC3C4)cc1 (configuration not stated) | > 100 |
| N#Cc1ccccc1NC(=O)/C(=N\Nc1ccc([N+](=O)[O-])cc1)C1C(=O)NC(=O)NC1=O | > 100 |
| CCCN=Cc1c(O)c(O)c(C(C)C)c2cc(C)c(-c3c(C)cc4c(C(C)C)c(O)c(O)c(C=NCCC)c4c3O)c(O)c12 | > 40.1 |

System: UACC-62 melanoma
Assay: NCI anticancer screen, dose series, 48 h

| SMILES | TGI [µM] |
| --- | --- |
| O=C(c1nc2ccc(Cl)cc2[nH]c1=O)C(O)c1ccccc1 (configuration not stated) | > 100 |
| c1ccc(C2(c3ccccc3)SSC3(S2)C2CC4CC(C2)CC3C4)cc1 (configuration not stated) | > 100 |
| N#Cc1ccccc1NC(=O)/C(=N\Nc1ccc([N+](=O)[O-])cc1)C1C(=O)NC(=O)NC1=O | > 100 |

System: UO-31 renal
Assay: NCI anticancer screen, dose series, 48 h

| SMILES | TGI [µM] |
| --- | --- |
| COC1=C(OC)C(O)(c2ccccc2)C1=O (configuration not stated) | > 100 |
| O=C(c1nc2ccc(Cl)cc2[nH]c1=O)C(O)c1ccccc1 (configuration not stated) | > 100 |
| c1ccc(C2(c3ccccc3)SSC3(S2)C2CC4CC(C2)CC3C4)cc1 (configuration not stated) | > 100 |
| N#Cc1ccccc1NC(=O)/C(=N\Nc1ccc([N+](=O)[O-])cc1)C1C(=O)NC(=O)NC1=O | > 100 |
| CCCN=Cc1c(O)c(O)c(C(C)C)c2cc(C)c(-c3c(C)cc4c(C(C)C)c(O)c(O)c(C=NCCC)c4c3O)c(O)c12 | 22.6 |
